≈ marks a conversion by molar mass, not a printed value.
Experiments:
A. baumanni 12 = experiment: Minimal inhibitory concentration on Muller-Hinton agar; format: cell-based; conditions: A. baumanni 12; for MIC: read-out: Minimal Inhibitory Concentration
Protocol: (§1) The essential oils were also tested individually for their minimal inhibitory concentration.
(§2) The solution was first prepared at 40% in DMSO before being placed on the Muller-Hinton agar in the following manner in Table VIII:
(§3) Twenty-two different microorganisms were tested and their minimal inhibitory concentration was tested.

A. baumanni AYE = experiment: as above; format: cell-based; conditions: A. baumanni AYE; for MIC: read-out: Minimal Inhibitory Concentration
Protocol: as §1, §2, §3

A. baumanni CIP107292 = experiment: as above; format: cell-based; conditions: A. baumanni CIP107292; read-out: Minimal Inhibitory Concentration
Protocol: as §1, §2, §3

A. baumanni CIP5377 = experiment: as above; format: cell-based; conditions: A. baumanni CIP5377
Protocol: as §1, §2, §3

A. baumanni CIP7034 = experiment: as above; format: cell-based; conditions: A. baumanni CIP7034; for MIC: read-out: Minimal Inhibitory Concentration
Protocol: as §1, §2, §3

A. baumanni RCH = experiment: as above; format: cell-based; conditions: A. baumanni RCH
Protocol: as §1, §2, §3

A. baumanni SAN008 = experiment: as above; format: cell-based; conditions: A. baumanni SAN008; for MIC: read-out: Minimal Inhibitory Concentration
Protocol: as §1, §2, §3

E. aerogenes 0705A0867 = experiment: as above; format: cell-based; conditions: for Minimal Inhibitory Concentration: E. aerogenes 0705A0867; for MIC: Klebsiella aerogenes, 0705A0867, E. aerogenes 0705A0867, read-out: Minimal Inhibitory Concentration
Protocol: as §1, §2, §3

E. cloacae 0705A1743 = experiment: as above; format: cell-based
Protocol: as §1, §2, §3

E. coli 0705A0434 = experiment: as above; format: cell-based; conditions: for Minimal Inhibitory Concentration: E. coli 0705A0434; for MIC: Escherichia coli, 0705A0434, E. coli 0705A0434, read-out: Minimal Inhibitory Concentration
Protocol: as §1, §2, §3

E. coli ATCC25922 = experiment: as above; format: cell-based
Protocol: as §1, §2, §3

K. oxyloca 0705C0187 = experiment: as above; format: cell-based; conditions: K. oxyloca 0705C0187; for MIC: read-out: Minimal Inhibitory Concentration
Protocol: as §1, §2, §3

P. aeroginosa 0703C0259 = experiment: as above; format: cell-based
Protocol: as §1, §2, §3

P. aeroginosa 0704C0134 = experiment: as above; format: cell-based; conditions: P. aeroginosa 0704C0134; for MIC: read-out: Minimal Inhibitory Concentration
Protocol: as §1, §2, §3

P. aeroginosa ATCC27853 = experiment: as above; format: cell-based; conditions: P. aeroginosa ATCC27853; read-out: Minimal Inhibitory Concentration
Protocol: as §1, §2, §3

S. aureus 0701A0095 = experiment: as above; format: cell-based; conditions: for Minimal Inhibitory Concentration: S. aureus 0701A0095; for MIC: Staphylococcus aureus, 0701A0095, S. aureus 0701A0095, read-out: Minimal Inhibitory Concentration
Protocol: as §1, §2, §3

S. aureus 0702E0196 = experiment: as above; format: cell-based; conditions: for Minimal Inhibitory Concentration: S. aureus 0702E0196; for MIC: Staphylococcus aureus, 0702E0196, S. aureus 0702E0196, read-out: Minimal Inhibitory Concentration
Protocol: as §1, §2, §3

S. aureus 0703H0036 = experiment: as above; format: cell-based; conditions: for Minimal Inhibitory Concentration: S. aureus 0703H0036; for MIC: Staphylococcus aureus, 0703H0036, S. aureus 0703H0036, read-out: Minimal Inhibitory Concentration
Protocol: as §1, §2, §3

S. aureus 0706C0025 = experiment: as above; format: cell-based; conditions: for MIC: Staphylococcus aureus, 0706C0025, S. aureus 0706C0025, read-out: Minimal Inhibitory Concentration
Protocol: as §1, §2, §3

S. aureus ATC25923 = experiment: as above; format: cell-based; conditions: for Minimal Inhibitory Concentration: S. aureus ATC25923; for MIC: Staphylococcus aureus, ATC25923, S. aureus ATC25923, read-out: Minimal Inhibitory Concentration
Protocol: as §1, §2, §3

Salmonell enteritidis 4 = experiment: as above; format: cell-based; conditions: Salmonell enteritidis 4; for MIC: read-out: Minimal Inhibitory Concentration
Protocol: as §1, §2, §3

[1] = from the literature; cited from earlier work
[2] = read-out: Minimal Inhibitory Concentration

Molecule	MIC (A. baumanni 12) [µg/mL]	Minimal Inhibitory Concentration (A. baumanni AYE) [mg/mL]	MIC (A. baumanni AYE) [µg/mL]	MIC (A. baumanni CIP7034) [µg/mL]	Minimal Inhibitory Concentration (A. baumanni SAN008) [mg/mL]	MIC (A. baumanni SAN008) [µg/mL]	Minimal Inhibitory Concentration (E. aerogenes 0705A0867) [mg/mL]	MIC (E. aerogenes 0705A0867) [µg/mL]	Minimal Inhibitory Concentration (E. coli 0705A0434) [mg/mL]	MIC (E. coli 0705A0434) [µg/mL]	Minimal Inhibitory Concentration (K. oxyloca 0705C0187) [mg/mL]	MIC (K. oxyloca 0705C0187) [µg/mL]	MIC (P. aeroginosa 0703C0259) [µg/mL]	Minimal Inhibitory Concentration (P. aeroginosa 0703C0259) [mg/mL]	Minimal Inhibitory Concentration (P. aeroginosa 0704C0134) [mg/mL]	MIC (P. aeroginosa 0704C0134) [µg/mL]	Minimal Inhibitory Concentration (S. aureus 0701A0095) [mg/mL]	MIC (S. aureus 0701A0095) [µg/mL]	Minimal Inhibitory Concentration (S. aureus 0702E0196) [mg/mL]	MIC (S. aureus 0702E0196) [µg/mL]	other results
C=CCc1ccc(O)c(OC)c1 [eugenol]	1000 (≈ 6.09 mM)	1	750 (≈ 4.57 mM)	1000 (≈ 6.09 mM)	1.5	750 (≈ 4.57 mM)	1.5	1000 (≈ 6.09 mM)	1.5	1000 (≈ 6.09 mM)	1.5	1000 (≈ 6.09 mM)	2500 (≈ 15.2 mM)	5	2	1500 (≈ 9.13 mM)	1.5	750 (≈ 4.57 mM)	1.5	1000 (≈ 6.09 mM)	Minimal Inhibitory Concentration (A. baumanni 12): 1.5 mg/mL; MIC (A. baumanni CIP107292): 1000 µg/mL (≈ 6.09 mM); Minimal Inhibitory Concentration (A. baumanni CIP5377): 1 mg/mL; MIC (A. baumanni CIP5377; [2]): 500 µg/mL (≈ 3.04 mM); Minimal Inhibitory Concentration (A. baumanni CIP7034): 1.5 mg/mL; Minimal Inhibitory Concentration (A. baumanni RCH): 1 mg/mL; MIC (A. baumanni RCH; [2]): 750 µg/mL (≈ 4.57 mM); Minimal Inhibitory Concentration (E. cloacae 0705A1743; E. cloacae 0705A1743): 1.5 mg/mL; MIC (E. cloacae 0705A1743; Enterobacter cloacae, 0705A1743, E. cloacae 0705A1743, read-out: Minimal Inhibitory Concentration): 1000 µg/mL (≈ 6.09 mM); Minimal Inhibitory Concentration (E. coli ATCC25922; E. coli ATCC25922): 1.5 mg/mL; MIC (E. coli ATCC25922; Escherichia coli, ATCC25922, E. coli ATCC25922, read-out: Minimal Inhibitory Concentration): 750 µg/mL (≈ 4.57 mM); MIC (P. aeroginosa ATCC27853): 7500 µg/mL (≈ 45.7 mM); Minimal Inhibitory Concentration (S. aureus 0703H0036): 1.5 mg/mL; MIC (S. aureus 0703H0036): 1000 µg/mL (≈ 6.09 mM); MIC (S. aureus 0706C0025): 1000 µg/mL (≈ 6.09 mM); Minimal Inhibitory Concentration (S. aureus ATC25923): 1.5 mg/mL; MIC (S. aureus ATC25923): 750 µg/mL (≈ 4.57 mM); Minimal Inhibitory Concentration (Salmonell enteritidis 4): 1.5 mg/mL; MIC (Salmonell enteritidis 4): 1000 µg/mL (≈ 6.09 mM)
O=C/C=C/c1ccccc1 [trans cinnamaldehyde]	1000 (≈ 7.57 mM)	2	1000 (≈ 7.57 mM)	1000 (≈ 7.57 mM)	2	1000 (≈ 7.57 mM)	2	1000 (≈ 7.57 mM)	2	1000 (≈ 7.57 mM)	2	1000 (≈ 7.57 mM)	1500 (≈ 11.3 mM)	2	2	1000 (≈ 7.57 mM)	1.5	750 (≈ 5.67 mM)	1.5	1000 (≈ 7.57 mM)	Minimal Inhibitory Concentration (S. aureus 0703H0036): 1.5 mg/mL; MIC (S. aureus 0703H0036): 750 µg/mL (≈ 5.67 mM); Minimal Inhibitory Concentration (S. aureus 0706C0025; S. aureus 0706C0025): 0.5 mg/mL; MIC (S. aureus 0706C0025): 750 µg/mL (≈ 5.67 mM); Minimal Inhibitory Concentration (S. aureus ATC25923): 1.5 mg/mL; MIC (S. aureus ATC25923): 750 µg/mL (≈ 5.67 mM); Minimal Inhibitory Concentration (Salmonell enteritidis 4): 2 mg/mL; MIC (Salmonell enteritidis 4): 1000 µg/mL (≈ 7.57 mM)
Gentamicin	–	–	–	–	–	–	–	–	–	–	–	–	–	–	–	–	–	–	–	–	LD50 in mice by intraperitoneal injection [1]: 245 mg/kg

Source: US9492398B2, “Nanocapsulation of essential oils for preventing or curing infectious diseases alone or with an antibiotic” (Eydo Pharma, priority 2011, dated 2016)
